In ChEMBL document CHEMBL1130870, “C6 modification of the pyridinone core of thrombin inhibitor L-374,087 as a means of enhancing its oral absorption” (Bioorg Med Chem Lett, 1998):

Legend:
Prothrombin = Prothrombin (Homo sapiens, UniProt P00734); test: Compound was evaluated to inhibit the thrombin enzyme
Serine protease 1 = Serine protease 1 (Homo sapiens, UniProt P07477); test: Compound was evaluated to inhibit the trypsin enzyme
[1] = Bioavailability as Vdss in dogs at 1 mg/kg intravenous dose; assay type: ADME, organism-based, Canis lupus familiaris; settings: dog, in vivo, read-out: Vdss
[2] = (§1) Compound was evaluated for half-life period in dogs at a dose of 5 mpk perorally; assay type: ADME, organism-based, Canis lupus familiaris; settings: dog, in vivo, po, 5 mg/kg
[3] = Bioavailability as Cmax in dogs at 5 mg/kg oral dose; assay type: ADME, organism-based, Canis lupus familiaris; parameters: dose 5 mg/kg, route oral; settings: dog, in vivo
[4] = Compound was evaluated for area under curve (total concentration) in dogs at a dose of 1 mpk perorally; assay type: ADME, organism-based, Canis lupus familiaris; settings: dog, in vivo, po, 1 mg/kg
[5] = Compound was evaluated for area under curve (total concentration) in dogs at a dose of 5 mpk perorally; assay type: ADME, organism-based, Canis lupus familiaris; settings: dog, in vivo, po, 5 mg/kg
[6] = Compound was evaluated for Clearance in dogs at a dose of 1 mpk intravenously; assay type: ADME, organism-based, Canis lupus familiaris; settings: dog, in vivo, iv, 1 mg/kg; read-out: CI
[7] = Partition coefficient (logP); assay type: physicochemical; settings: octanol/water
[8] = Compound was evaluated for its anticoagulant and antithrombotic activity by measuring the clotting parameter in human plasma; assay type: functional
Homo sapiens = species on record: Homo sapiens; test: Compound was evaluated for its anticoagulant and antithrombotic activity by measuring the %protein binding in human plasma; assay type: functional, cell-free
Rattus norvegicus [9] = species on record: Rattus norvegicus; test: Compound was evaluated for its anticoagulant and antithrombotic activity by measuring the clotting parameter in rat plasma; assay type: functional
Rattus norvegicus [10] = species on record: Rattus norvegicus; test: Compound was evaluated for its anticoagulant and antithrombotic activity by measuring the final plasma concentration in rat plasma; assay type: functional, organism-based
Rattus norvegicus [11] = species on record: Rattus norvegicus; test: Compound was evaluated for its anticoagulant and antithrombotic activity by measuring the %protein binding in rat plasma; assay type: functional, organism-based
Canis familiaris = species on record: Canis familiaris; test: as §1; assay type: ADME, organism-based, Canis lupus familiaris; settings: dog, in vivo, po, 5 mg/kg

Serine protease 1, sequence (P07477 whole entry): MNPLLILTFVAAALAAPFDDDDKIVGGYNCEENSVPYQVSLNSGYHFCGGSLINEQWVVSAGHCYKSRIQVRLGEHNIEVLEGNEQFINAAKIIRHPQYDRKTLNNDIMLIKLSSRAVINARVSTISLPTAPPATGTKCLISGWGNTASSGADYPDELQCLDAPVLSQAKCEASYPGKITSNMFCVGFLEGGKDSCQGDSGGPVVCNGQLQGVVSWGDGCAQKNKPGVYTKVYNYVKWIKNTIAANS

| SMILES | Ki (Prothrombin) | Ki (Serine protease 1) | Vd [1] | half-life [2] | Cmax [3] | AUC [4] | AUC [5] | clearance [6] | logP [7] | PPB (Homo sapiens) | PPB (Rattus norvegicus [11]) | T1/2 (Canis familiaris) | 2x APTT [8] | 2x APTT (Rattus norvegicus [9]) | Plasma concentration (Rattus norvegicus [10]) |
| --- | --- | --- | --- | --- | --- | --- | --- | --- | --- | --- | --- | --- | --- | --- | --- |
| Cc1nc(N)ccc1CNC(=O)Cn1c(C(F)(F)F)ccc(NS(=O)(=O)Cc2ccc(Cl)cc2)c1=O | 2.6 nM | 3400 nM |  |  |  |  |  |  |  |  |  |  |  |  |  |
| Cc1nc(N)ccc1CNC(=O)Cn1c(C)ccc(NS(=O)(=O)Cc2ccc(Cl)cc2)c1=O | 0.12 nM | 2600 nM |  |  |  |  |  |  |  |  |  |  |  |  |  |
| Cc1nc(N)ccc1CNC(=O)Cn1c(C2CC2)ccc(NS(=O)(=O)Cc2ccc(Cl)cc2)c1=O | 4 nM | 1900 nM |  |  |  |  |  |  | 1.98 | 94% |  |  | 1.43 µM |  | 0.347 µM |

Further lines, with some results ahead:

| Ki (Prothrombin) | Ki (Serine protease 1) | Vd [1] | half-life [2] | Cmax [3] | AUC [4] | AUC [5] | clearance [6] | logP [7] | PPB (Homo sapiens) | PPB (Rattus norvegicus [11]) | T1/2 (Canis familiaris) | SMILES | 2x APTT [8] | 2x APTT (Rattus norvegicus [9]) | Plasma concentration (Rattus norvegicus [10]) |
| --- | --- | --- | --- | --- | --- | --- | --- | --- | --- | --- | --- | --- | --- | --- | --- |
| 0.85 nM | 1400 nM | 0.54 L/kg | 3.15 h | 9.46 µM | 5.93 µM·h | 40.6 µM·h | 5.82 mL/min/kg | 1.52 | 88% | 75% |  | CCCc1ccc(NS(=O)(=O)Cc2ccccc2)c(=O)n1CC(=O)NCc1ccc(N)nc1C | 0.32 µM | 0.4 µM | 0.389 µM |
|  |  | 0.46 L/kg |  | 5.31 µM | 9.92 µM·h | 18.8 µM·h | 3.8 mL/min/kg | 0.69 | 78% | 47% | 2.52 h | Cc1nc(N)ccc1CNC(=O)Cn1c(C)ccc(NS(=O)(=O)Cc2ccccc2)c1=O [L-374087] | 0.22 µM | 0.25 µM | 0.586 µM |
| 12 nM | 2500 nM |  |  |  |  |  |  |  |  |  |  | Cc1nc(N)ccc1CNC(=O)Cn1c(C(F)(F)F)ccc(NS(=O)(=O)Cc2ccccc2)c1=O |  |  |  |
| 16 nM | 1700 nM |  |  |  |  |  |  |  |  |  |  | Cc1nc(N)ccc1CNC(=O)Cn1c(C2CC2)ccc(NS(=O)(=O)Cc2ccccc2)c1=O |  |  |  |
